The results in this text go back to ChEMBL document CHEMBL1201862, “PubChem BioAssay data set” (2004).

By EC50 is commonly meant the midpoint of the concentration-response curve. Usually AC50 stands for the concentration giving half of the maximal activity seen. In general, IC50 refers to the concentration that gives 50% inhibition.

In assay [1] the target is Beta-2 adrenergic receptor (Homo sapiens, UniProt P07550). In words: beta2AR agonists driving receptor internalization, dose response, cell-based, FAP fluorogen, flow cytometry, cherry pick 1 (AID 588763). It is filed as functional.
Assay [2] can be described thus: NIH-3T3 fibroblast cytotoxicity, dose response, cytotoxicity control, cell-based, fluorescence, Alamar Blue, secondary assay (AID 2327).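 Also: NIH-3T3 mouse fibroblasts cultured with fluconazole at 8 µg/mL.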 Type of assay: functional. A general note: Alamar Blue is a resazurin reagent that responds to reducing activity.
In assay [3] the target is Serine/threonine-protein phosphatase (Candida dubliniensis (strain CD36 / CBS 7987 / NCPF 3949 / NRRLY-17841) (Yeast), UniProt B9W6M3). In words: calcineurin pathway inhibitors in yeast reporter, dose response, S. cerevisiae, CDRE-lacZ, luminescence, secondary (AID 2388).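 Also: yeast reporter cells carrying a calcineurin-responsive lacZ construct stimulated with calcium chloride; luminescent beta-galactosidase reporter signal in whole cells rather than isolated phosphatase activity; potency for inhibition where a drop in reporter signal means calcineurin blockade.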 It is filed as functional, cell-based.
The nature of assay [4]: C. albicans growth with fluconazole, confirmation, fluorescence, retest (AID 2467). Type of assay: functional, cell-based.
Assay [5] has as its target ATP-dependent molecular chaperone HSP82 (Candida albicans (strain WO-1) (Yeast), UniProt C4YTQ8). Briefly: loss of DOC-induced GRE-beta-galactosidase reporter signal, dose response, Hsp90 inhibitor project, S. cerevisiae, luminescence (AID 2400).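 Also: beta-galactosidase luminescence from glucocorticoid response element reporter as proxy for Hsp90 function; inhibitor potency where signal loss means Hsp90 inhibition.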 It is filed as functional, cell-based.
The nature of assay [6]: microbe, parasite or virus in culture. The settings on record: Mycobacterium tuberculosis. It is filed as functional.
Assay [7] addresses CAAX prenyl protease 2 (Saccharomyces cerevisiae S288c, UniProt Q03530). It is filed as biochemical.
Assay [8] has as its target CAAX prenyl protease 2 (Homo sapiens, UniProt Q9Y256). In words: human Rce1 protease inhibitors, dose response, biochemical, yeast membranes, quenched-peptide fluorescence, cherry-pick (AID 588849).
Assay [9] in a line: CEM21 lymphoblast cell cytotoxicity, dose response, cytotoxicity control for viral fusion inhibitor project, CellTiter-Glo luminescence, cherry-picked (AID 652042).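 Also: potency for signal decrease meaning cytotoxicity.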 It is filed as functional, cell-based.
Assay [10] addresses T1, Microphthalmia-associated transcription factor (Homo sapiens, UniProt O75030).
T1 sequence (O75030 whole entry): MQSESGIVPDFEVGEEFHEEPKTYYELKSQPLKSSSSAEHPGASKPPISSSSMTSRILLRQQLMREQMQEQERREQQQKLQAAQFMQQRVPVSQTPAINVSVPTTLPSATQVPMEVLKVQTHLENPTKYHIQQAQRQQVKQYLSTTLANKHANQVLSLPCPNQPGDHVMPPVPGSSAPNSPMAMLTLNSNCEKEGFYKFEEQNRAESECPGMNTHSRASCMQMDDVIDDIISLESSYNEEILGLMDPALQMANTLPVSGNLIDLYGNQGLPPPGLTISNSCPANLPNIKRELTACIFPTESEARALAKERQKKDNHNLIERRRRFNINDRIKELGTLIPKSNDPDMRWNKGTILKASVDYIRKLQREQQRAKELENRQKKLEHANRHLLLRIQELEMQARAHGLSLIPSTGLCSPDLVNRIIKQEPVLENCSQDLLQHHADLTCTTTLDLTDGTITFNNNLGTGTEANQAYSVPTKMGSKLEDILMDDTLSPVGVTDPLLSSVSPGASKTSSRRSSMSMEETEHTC
In words: TRPM1 promoter luciferase signal decrease, dose response, MITF inhibitor project, cell-based, SK-MEL-5, cherry-picked, set 3 (AID 493073).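 Also: SK-MEL-5 melanoma cells with luciferase driven by the MITF target TRPM1 promoter.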 It is filed as functional.

Another assay deals with A-375. Briefly: A375 melanoma cell viability reduction, dose response, counter-screen for MITF modulator project, cherry-pick samples, set 2 (AID 540335). Type of assay: functional, cell-based. The settings on record: Homo sapiens. For orientation: The purpose of a counterscreen is to sort out artefacts and off-target activity.
Assay [11] can be described thus: inhibitors of HIV Env-driven cell fusion, dose response, cherry-pick (AID 652057). It is filed as functional, cell-based.
Assay [12] concerns the target G-protein coupled receptor 55 (Homo sapiens, UniProt Q9Y2T6). In words: GPR55 agonists via beta-arrestin recruitment, primary screen, imaging, U2OS cells, beta-arrestin-GFP redistribution (AID 1961). It is filed as functional.
The test system of a further assay is Vero. Briefly: cells. Type of assay: functional. The settings on record: Chlorocebus sabaeus.
A short description of assay [13]: inhibitors of clade B AD8 Env fusion, dose response, cell-based, cherry-pick (AID 652062).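 Also: luciferase signal from cell-cell fusion driven by HIV-1 clade B AD8 Env; potency is for inhibitors of fusion seen as a drop in luminescence.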 Type of assay: functional.
A short description of assay [14]: ZM109 Env clade C HIV-1 fusion inhibitors, dose response, HeLa effector, CEM target cells, luciferase, cherry-pick (AID 652058). It is filed as functional, cell-based.
For a further assay, the system named is INS1. Briefly: beta cell apoptosis inhibitors, cytokine rescue, dose response, luminescence, retest (AID 449756).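 Also: cell death triggered by IL-1 beta plus TNF-alpha plus IFN-gamma mixture; protective hits raise ATP signal compared with cytokine alone wells.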 It is filed as functional, cell-based. The note with it: Rattus norvegicus.
Assay [15] has as its target Eukaryotic translation initiation factor 4E (Mus musculus, UniProt P63073). In words: eIF4E–eIF4G protein interaction inhibitors, dose response, biochemical, TR-FRET (AID 855).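 Also: potency for disrupting eIF4E binding to eIF4GI seen as loss of FRET.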 Type of assay: functional.
Assay [16] is described as follows: Shn3 3'UTR reporter inhibitors, dose response, cell-based, Clone20 osteoblasts, firefly luciferase, cherry-picked (AID 624132).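 Also: firefly luciferase luminescence from reporter carrying the Shn3 3'UTR in osteoblasts.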 It is filed as functional.
Assay [17] can be described thus: A549 cell cytotoxicity, dose response, cytotoxicity control, plate reader, cherry-pick, antagonist series (AID 743412). It is filed as functional, cell-based.
Assay [18] is described as follows: HepG2 cell cytotoxicity, dose response, cytotoxicity control for Shn3 inhibitor project, CellTiter-Glo, cherry-picked (AID 624134). It is filed as functional, cell-based. (ATP-based viability assays read luminescence as a measure of living cells.)
Assay [19] can be described thus: non-specific cell cytotoxicity, dose response, cytotoxicity control for PAX8 inhibitor project, plate reader, dry powder samples (AID 743021). It is filed as functional, cell-based.
Assay [20] can be described thus: cytotoxicity in HEK-293T NF-kB-Luc cells, dose response, cytotoxicity control for B/T-cell NF-kB inhibitor project, cell-based, uHTS hits (AID 489019).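 Also: IC50 reflects cytotoxicity as loss of cell viability.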 It is filed as functional.
The nature of assay [21]: HepG2 cell cytotoxicity, dose response, cytotoxicity control, plate reader, cherry-pick, antagonist series (AID 743416). Type of assay: functional, cell-based.
Assay [22] is described as follows: Luminescence Cell-Based Dose Confirmation HTS to Identify Inhibitors of Platelet Dense Granule Release. [Related pubchem assays: 1663 (Primary HTS), 1678 (Summary of Project)]. Type of assay: functional.
Assay [23] concerns the target Luciferin 4-monooxygenase (Photinus pyralis, UniProt P08659). Briefly: firefly luciferase enzyme inhibitors, dose response, biochemical, luminescence (AID 1891).
The next assay concerns Jurkat. In words: antigen receptor-induced NF-kB inhibitors, dose response, Jurkat, luciferase reporter, luminescence, B- and T-cell (AID 489004).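 Also: NF-kB luciferase reporter Jurkat cells stimulated with PMA plus ionomycin.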 The note with it: Homo sapiens. It is filed as functional, cell-based.
The nature of assay [24]: HEK293 cell cytotoxicity, dose response, cytotoxicity control, plate reader, cherry-picked samples (AID 743446). It is filed as functional, cell-based.
The target of the next assay is Paired box protein Pax-8 (Homo sapiens, UniProt Q06710). Briefly: inhibitors of PAX8-driven TPO luciferase reporter, dose response, RMG-I cells, cherry-pick (AID 687027).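 Also: luciferase reporter driven by Pax8 target thyroperoxidase promoter measured by SteadyGlo luminescence.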 It is filed as functional, cell-based.
Assay [25] can be described thus: LGR2 antagonists, dose response, cell-based, HEK293, CRE-luciferase reporter, cherry pick, set 2 (AID 743343).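 Also: transfected cells were stimulated with diluted bursicon conditioned medium after compound addition.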 Type of assay: functional.
Assay [26] is described as follows: MC4R antagonists, dose response, counter-screen for LGR2 antagonist project, cell-based, plate reader, cherry pick (AID 743444).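 Also: transfected HEK 293 cells stimulated with alpha-MSH peptide; potency of inhibitors of the alpha-MSH evoked signal.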 Type of assay: functional.

The structures appear in SMILES notation. Activity calls are given as the source filed them.

CAAX prenyl protease 2 (Homo sapiens, UniProt Q9Y256), sequence (Q9Y256 whole entry, the tested form may be a part): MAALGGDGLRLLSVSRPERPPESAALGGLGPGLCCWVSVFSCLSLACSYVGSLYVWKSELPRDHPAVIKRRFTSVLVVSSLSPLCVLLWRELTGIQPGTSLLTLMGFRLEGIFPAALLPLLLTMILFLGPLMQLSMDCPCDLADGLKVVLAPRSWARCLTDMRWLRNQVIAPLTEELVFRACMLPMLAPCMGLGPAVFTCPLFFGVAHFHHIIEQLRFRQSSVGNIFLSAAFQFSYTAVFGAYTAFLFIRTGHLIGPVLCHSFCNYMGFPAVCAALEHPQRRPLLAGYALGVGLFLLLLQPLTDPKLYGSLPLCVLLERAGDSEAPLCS
Beta-2 adrenergic receptor, sequence (P07550 whole entry): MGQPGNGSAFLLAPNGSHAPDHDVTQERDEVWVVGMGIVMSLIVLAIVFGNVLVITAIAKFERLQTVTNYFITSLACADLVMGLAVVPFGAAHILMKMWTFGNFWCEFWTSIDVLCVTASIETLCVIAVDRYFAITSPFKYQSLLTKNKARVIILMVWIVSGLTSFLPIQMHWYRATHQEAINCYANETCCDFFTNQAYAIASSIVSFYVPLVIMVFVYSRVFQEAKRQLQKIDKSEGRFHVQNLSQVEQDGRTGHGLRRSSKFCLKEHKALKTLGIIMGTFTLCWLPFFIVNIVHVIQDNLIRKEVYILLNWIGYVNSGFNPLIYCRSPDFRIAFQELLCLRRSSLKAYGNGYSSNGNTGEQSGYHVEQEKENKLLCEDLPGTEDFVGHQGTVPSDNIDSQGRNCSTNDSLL
Serine/threonine-protein phosphatase, sequence (B9W6M3 whole entry): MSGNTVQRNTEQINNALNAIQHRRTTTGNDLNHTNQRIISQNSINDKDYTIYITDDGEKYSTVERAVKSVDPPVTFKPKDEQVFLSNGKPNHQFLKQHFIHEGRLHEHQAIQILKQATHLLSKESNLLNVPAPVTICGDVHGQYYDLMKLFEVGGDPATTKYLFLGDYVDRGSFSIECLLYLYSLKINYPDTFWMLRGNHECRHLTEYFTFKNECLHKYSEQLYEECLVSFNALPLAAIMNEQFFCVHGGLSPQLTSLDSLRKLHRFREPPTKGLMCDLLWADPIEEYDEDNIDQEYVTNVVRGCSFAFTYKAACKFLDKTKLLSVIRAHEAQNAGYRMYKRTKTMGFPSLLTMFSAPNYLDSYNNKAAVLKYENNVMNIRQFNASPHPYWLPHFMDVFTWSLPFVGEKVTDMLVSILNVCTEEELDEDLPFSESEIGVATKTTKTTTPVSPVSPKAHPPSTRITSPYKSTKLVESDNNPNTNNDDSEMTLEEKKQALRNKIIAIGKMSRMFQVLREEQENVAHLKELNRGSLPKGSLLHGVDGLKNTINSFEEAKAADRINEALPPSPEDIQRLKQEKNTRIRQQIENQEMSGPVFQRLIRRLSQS
ATP-dependent molecular chaperone HSP82, sequence (C4YTQ8 whole entry): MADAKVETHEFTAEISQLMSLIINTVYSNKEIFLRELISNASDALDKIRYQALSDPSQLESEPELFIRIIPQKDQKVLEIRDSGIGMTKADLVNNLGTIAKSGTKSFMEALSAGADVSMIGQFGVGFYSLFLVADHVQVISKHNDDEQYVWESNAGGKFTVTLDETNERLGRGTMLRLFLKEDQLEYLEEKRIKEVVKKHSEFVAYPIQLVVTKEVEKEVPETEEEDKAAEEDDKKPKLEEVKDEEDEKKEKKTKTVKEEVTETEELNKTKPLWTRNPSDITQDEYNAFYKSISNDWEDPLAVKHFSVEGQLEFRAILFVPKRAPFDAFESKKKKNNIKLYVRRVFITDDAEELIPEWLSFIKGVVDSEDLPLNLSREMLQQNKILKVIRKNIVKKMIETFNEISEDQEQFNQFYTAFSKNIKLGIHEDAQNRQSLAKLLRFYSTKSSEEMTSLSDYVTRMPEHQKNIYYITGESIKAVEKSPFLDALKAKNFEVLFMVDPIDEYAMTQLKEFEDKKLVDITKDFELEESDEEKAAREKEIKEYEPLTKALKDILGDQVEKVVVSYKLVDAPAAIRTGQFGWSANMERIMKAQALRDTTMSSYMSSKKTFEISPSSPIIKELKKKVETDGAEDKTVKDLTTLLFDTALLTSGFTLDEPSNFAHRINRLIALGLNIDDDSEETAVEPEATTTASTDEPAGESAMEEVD
Eukaryotic translation initiation factor 4E, sequence (P63073 whole entry): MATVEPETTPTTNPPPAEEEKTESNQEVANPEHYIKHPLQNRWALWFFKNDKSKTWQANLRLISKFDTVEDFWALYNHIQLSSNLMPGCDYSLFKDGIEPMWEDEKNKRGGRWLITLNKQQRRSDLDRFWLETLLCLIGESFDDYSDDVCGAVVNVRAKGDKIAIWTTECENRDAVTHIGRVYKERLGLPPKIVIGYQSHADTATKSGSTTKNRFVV
G-protein coupled receptor 55, sequence (Q9Y2T6 whole entry): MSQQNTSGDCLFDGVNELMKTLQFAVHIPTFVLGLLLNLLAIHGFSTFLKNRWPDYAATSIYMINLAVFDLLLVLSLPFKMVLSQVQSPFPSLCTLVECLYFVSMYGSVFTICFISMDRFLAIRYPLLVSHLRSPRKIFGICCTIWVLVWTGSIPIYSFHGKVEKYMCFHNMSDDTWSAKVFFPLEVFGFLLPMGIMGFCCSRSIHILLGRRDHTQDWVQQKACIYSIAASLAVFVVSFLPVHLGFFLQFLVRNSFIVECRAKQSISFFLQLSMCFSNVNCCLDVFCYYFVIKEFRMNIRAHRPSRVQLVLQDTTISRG
CAAX prenyl protease 2 (Saccharomyces cerevisiae S288c, UniProt Q03530), sequence (Q03530 whole entry): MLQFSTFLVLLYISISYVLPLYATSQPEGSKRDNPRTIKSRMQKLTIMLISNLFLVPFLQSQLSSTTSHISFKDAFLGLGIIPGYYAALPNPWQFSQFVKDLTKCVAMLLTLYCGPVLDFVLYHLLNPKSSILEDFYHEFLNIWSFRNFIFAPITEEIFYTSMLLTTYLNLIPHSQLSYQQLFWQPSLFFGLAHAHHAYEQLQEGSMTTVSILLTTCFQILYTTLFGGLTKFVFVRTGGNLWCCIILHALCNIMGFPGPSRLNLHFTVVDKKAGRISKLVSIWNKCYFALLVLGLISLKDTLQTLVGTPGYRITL
Paired box protein Pax-8, sequence (Q06710 whole entry): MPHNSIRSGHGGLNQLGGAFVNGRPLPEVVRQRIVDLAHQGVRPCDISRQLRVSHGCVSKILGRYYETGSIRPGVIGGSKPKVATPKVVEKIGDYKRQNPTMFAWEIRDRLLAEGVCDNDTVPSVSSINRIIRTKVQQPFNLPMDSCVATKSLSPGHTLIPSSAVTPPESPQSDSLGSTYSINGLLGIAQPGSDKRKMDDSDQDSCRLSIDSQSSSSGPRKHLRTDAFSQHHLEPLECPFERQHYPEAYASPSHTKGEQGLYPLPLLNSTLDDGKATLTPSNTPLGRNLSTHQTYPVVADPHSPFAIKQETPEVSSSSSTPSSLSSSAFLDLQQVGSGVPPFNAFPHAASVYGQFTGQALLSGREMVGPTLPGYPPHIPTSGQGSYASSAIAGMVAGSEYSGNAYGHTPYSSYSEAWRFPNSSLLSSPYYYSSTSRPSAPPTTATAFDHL
Luciferin 4-monooxygenase, sequence (P08659 whole entry): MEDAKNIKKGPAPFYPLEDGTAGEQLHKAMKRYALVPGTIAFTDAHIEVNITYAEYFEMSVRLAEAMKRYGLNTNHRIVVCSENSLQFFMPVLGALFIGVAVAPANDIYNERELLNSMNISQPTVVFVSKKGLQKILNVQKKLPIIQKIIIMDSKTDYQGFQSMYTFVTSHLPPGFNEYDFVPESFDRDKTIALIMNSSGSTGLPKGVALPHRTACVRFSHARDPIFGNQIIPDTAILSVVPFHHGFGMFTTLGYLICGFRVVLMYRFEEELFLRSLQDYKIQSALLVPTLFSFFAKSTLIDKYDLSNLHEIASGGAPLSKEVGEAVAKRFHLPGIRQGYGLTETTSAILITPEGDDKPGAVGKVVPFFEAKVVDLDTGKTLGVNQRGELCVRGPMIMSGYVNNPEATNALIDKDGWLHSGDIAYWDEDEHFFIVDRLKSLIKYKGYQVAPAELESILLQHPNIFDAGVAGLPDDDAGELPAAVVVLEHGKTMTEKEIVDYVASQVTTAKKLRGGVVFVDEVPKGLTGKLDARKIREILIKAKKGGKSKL

On to `CCn1c(COc2ccc(Cl)cc2)nnc1SCc1ccc(C#N)cc1`, for which the EC50 in assay [1] was 2.11 µM (active).

In the case of `CCc1ccc(C2c3[nH]c4ccccc4c3CCN2C(=O)c2ccc(=O)n(C)n2)cc1` (stereo not given), the EC50 is > 160 µM (inconclusive) in [2], > 180 µM (inactive) in assay [3], 0.223 µM (active) in assay [4] and > 160 µM (inactive) in assay [5]. For the same molecule, in assay [6], the CC50 is > 40 µM (active).

As to `O=C(OC[C@@H]1CCCN2CCCC[C@H]12)c1cc2ccccc2oc1=O`, the results for the AC50 on CAAX prenyl protease 2 [7] and at CAAX prenyl protease 2 [8] were 16.3 µM (active) and 55.9 µM (active), respectively.

`CC1CCC(C(C)C)C(OC(=O)Cn2c(-c3ccc(Cl)cc3)[n+](C)c3ccccc32)C1` (stereo not given): the AC50 in assay [9] was 9.28 µM (active); in assay [10] it was 6.29 µM (active); with A-375, 26.3 µM (active); in assay [11], 15.7 µM (active); in assay [13] it was 10.8 µM (active); in assay [14], 11.7 µM (active). Besides, in the assay on INS1, the AC50 is 3.42 µM (active). For the same molecule, the EC50 in assay [12] was > 32 µM (inactive). Besides, in the assay with Vero, the CC50 is > 25 µM (active).

On to `Cc1ccc(OCc2cc(C(=O)NCc3cnn(-c4cccc(F)c4)c3)no2)cn1`, for which the results for the EC50 in assay [2], in assay [1] and in assay [4] were > 160 µM (inactive), 0.195 µM (active) and 0.964 µM (active), respectively.

`O=c1c(-c2ccccc2)coc2c(CN3CCCC3)c(O)ccc12`: the half-maximal activity concentration (AC50) on CAAX prenyl protease 2 [8] is 16.2 µM (active). In [15], the IC50 was > 64 µM (inactive).

As for `COCCn1c(C)cc(C2=NN=C(NC3CC3)SC2)c1C`, the AC50 is < 0.26 µM (active) in assay [16]; 22.4 µM (active) in assay [17]; 46.1 µM (active) in [18]; 12.1 µM (active) in assay [19]; 26.7 µM (active) in assay [21]; 29.2 µM (active) in assay [24]. In addition, the results for the AC50 (at Paired box protein Pax-8; in [25]; in assay [26]) were < 0.26 µM (active), 0.215 µM (active) and 0.282 µM (active), respectively. Besides, the IC50 in assay [20] is > 80 µM (inactive); in the assay with Jurkat, 0.22 µM (active). Also, the values for the EC50 in [22] and in assay [23] were 2.14 µM (active) and 7.61 µM (active), respectively.
